# Species on record: Oryctolagus cuniculus
# Assay: Concentration required to inhibit PAF-induced maximum aggregation
# Assay type: functional
# Conditions: not given
row,SMILES,IC50
1,CSc1ncccc1C(=O)N1CCC(=C2c3ccc(Cl)cc3CCc3cccnc32)CC1,20000 nM
2,Clc1ccc2c(c1)CCc1cccnc1C2=C1CCN(Cc2cccnc2)CC1,4000 nM
3,Cc1ccc(CN2CCC(=C3c4ccc(Cl)cc4CCc4cccnc43)CC2)cn1.Cl,9000 nM
4,Clc1ccc2c(c1)CCc1cccnc1C2=C1CCN(Cc2ccncc2)CC1,1800 nM
5,O=C(c1cc[n+]([O-])cc1)N1CCC(=C2c3ccc(Cl)cc3CCc3cccnc32)CC1,220 nM
6,Clc1ccc2c(c1)CCc1cccnc1C2=C1CCN(Cc2cncc(Br)c2)CC1,720 nM
7,O=C(c1cccnc1Cl)N1CCC(=C2c3ccc(Cl)cc3CCc3cccnc32)CC1,> 100000 nM
8,[O-][n+]1cccc(CN2CCC(=C3c4ccc(Cl)cc4CCc4cccnc43)CC2)c1,14000 nM
9,Clc1ccc2c(c1)CCc1cccnc1C2=C1CCN(Cc2cccnc2Cl)CC1,> 100000 nM
10,COC(=O)c1ccncc1C(=O)N1CCC(=C2c3ccc(Cl)cc3CCc3cccnc32)CC1,17000 nM
11,Cc1cncc(C(=O)N2CCC(=C3c4ccc(Cl)cc4CCc4cccnc43)CC2)c1,3100 nM
12,O=C(c1cncc(Br)c1)N1CCC(=C2c3ccc(Cl)cc3CCc3cccnc32)CC1,3400 nM

# Test system: Rattus norvegicus
# Assay: Tested at 10 (mg/kg) intravenous dose for percent inhibition of the arterial blood pressure in normotensive rats caused by histamine
# Assay type: functional
# Conditions: not given
row,SMILES,Inhibition
1,CCOC(=O)N1CCC(=C2c3ccc(Cl)cc3CCc3cccnc32)CC1 [LORATADINE],66.3%
2,Clc1ccc2c(c1)CCc1cccnc1C2=C1CCN(Cc2cccnc2)CC1,83.6%
3,Cc1ccc(CN2CCC(=C3c4ccc(Cl)cc4CCc4cccnc43)CC2)cn1.Cl,96.4%
4,Clc1ccc2c(c1)CCc1cccnc1C2=C1CCN(Cc2ccncc2)CC1,85.1%
5,Clc1ccc2c(c1)CCc1cccnc1C2=C1CCN(Cc2cncc(Br)c2)CC1,61.9%

# Species on record: Cavia porcellus
# Assay: Tested for concentration required to inhibit histamine -induced ileum contraction
# Assay type: functional
# Conditions: not given
row,SMILES,IC50
1,O=C(c1cc[n+]([O-])cc1)N1CCC(=C2c3ccc(Cl)cc3CCc3cccnc32)CC1,210 nM
2,O=C(c1cccnc1Cl)N1CCC(=C2c3ccc(Cl)cc3CCc3cccnc32)CC1,130 nM
3,Clc1ccc2c(c1)CCc1cccnc1C2=C1CCN(Cc2cccnc2Cl)CC1,350 nM

# Species on record: Mus musculus
# Assay: Dose required to inhibit PAF-induced mortality
# Assay type: functional
# Conditions: read-out: ID50 (the source's name)
row,SMILES,ED50
1,CSc1ncccc1C(=O)N1CCC(=C2c3ccc(Cl)cc3CCc3cccnc32)CC1,> 30 mg/kg
2,Clc1ccc2c(c1)CCc1cccnc1C2=C1CCN(Cc2cncc(Br)c2)CC1,10 mg/kg
3,[O-][n+]1cccc(CN2CCC(=C3c4ccc(Cl)cc4CCc4cccnc43)CC2)c1,> 30 mg/kg
4,COC(=O)c1ccncc1C(=O)N1CCC(=C2c3ccc(Cl)cc3CCc3cccnc32)CC1,> 30 mg/kg
5,O=C(c1cncc(Br)c1)N1CCC(=C2c3ccc(Cl)cc3CCc3cccnc32)CC1,> 30 mg/kg

# Species on record: Rattus norvegicus
# Assay: Tested for dose required to inhibit antigen induced increased permeability
# Assay type: functional
# Conditions: read-out: ID50 (the source's name)
row,SMILES,ED50
1,CCOC(=O)N1CCC(=C2c3ccc(Cl)cc3CCc3cccnc32)CC1 [LORATADINE],2.4 mg/kg

# Species on record: Rattus norvegicus
# Assay: Tested for dose required to inhibit endotoxin induced mortality in rats
# Assay type: functional
# Conditions: read-out: ID50 (the source's name)
row,SMILES,ED50
1,CCOC(=O)N1CCC(=C2c3ccc(Cl)cc3CCc3cccnc32)CC1 [LORATADINE],> 5 mg/kg
2,CN(C)CCOC(c1ccccc1)c1ccccc1 [DIPHENHYDRAMINE],> 5 mg/kg

# Test system: Rattus norvegicus
# Assay: Tested at 10 (mg/kg) intravenous dose for percent inhibition required to reduce the lowering of the arterial blood pressure caused by histamine
# Assay type: functional
# Conditions: not given
row,SMILES,Inhibition
1,O=C(c1cc[n+]([O-])cc1)N1CCC(=C2c3ccc(Cl)cc3CCc3cccnc32)CC1,46.2%

# Species on record: Mus musculus
# Assay: Tested for dose required to inhibit endotoxin induced mortality in mice
# Assay type: functional
# Conditions: read-out: ID50 (the source's name)
row,SMILES,ED50
1,CCOC(=O)N1CCC(=C2c3ccc(Cl)cc3CCc3cccnc32)CC1 [LORATADINE],> 10 mg/kg
2,CN(C)CCOC(c1ccccc1)c1ccccc1 [DIPHENHYDRAMINE],> 10 mg/kg

# Test system: Mus musculus
# Assay: Antiallergic activity was evaluated using active anaphylactic test after po administration of 10 (mg/kg) in mice
# Assay type: functional
# Conditions: not given
row,SMILES,Inhibition
1,CSc1ncccc1C(=O)N1CCC(=C2c3ccc(Cl)cc3CCc3cccnc32)CC1,50%

# Species on record: Cavia porcellus
# Assay: Tested for concentration required to inhibit H1 histamine -induced guinea pig ileum contraction
# Assay type: functional
# Conditions: not given
row,SMILES,IC50
1,Clc1ccc2c(c1)CCc1cccnc1C2=C1CCN(Cc2cccnc2)CC1,93 nM
2,Cc1ccc(CN2CCC(=C3c4ccc(Cl)cc4CCc4cccnc43)CC2)cn1.Cl,37 nM
3,Clc1ccc2c(c1)CCc1cccnc1C2=C1CCN(Cc2ccncc2)CC1,94 nM
4,Clc1ccc2c(c1)CCc1cccnc1C2=C1CCN(Cc2cncc(Br)c2)CC1,280 nM
5,Cc1cncc(C(=O)N2CCC(=C3c4ccc(Cl)cc4CCc4cccnc43)CC2)c1,350 nM

# Test system: Mus musculus
# Assay: Tested for effect on central nervous system in mice at 100 mg/kg peroral dose for spontaneous motor activity (SMA) expressed as percentage relative to control
# Assay type: functional
# Conditions: route oral
row,SMILES,Relative to control
1,CCOC(=O)N1CCC(=C2c3ccc(Cl)cc3CCc3cccnc32)CC1 [LORATADINE],106%
2,CC(C)(C)c1ccc(C(O)CCCN2CCC(C(O)(c3ccccc3)c3ccccc3)CC2)cc1 (centres undefined) [TERFENADINE],90%
3,CN1C(=O)CN=C(c2ccccc2)c2cc(Cl)ccc21 [DIAZEPAM],54%

# Test system: Mus musculus
# Assay: Tested for effect on central nervous system in mice at 100 mg/kg peroral dose barbiturate-sleeping time (BST)
# Assay type: functional
# Conditions: route oral
row,SMILES,X
1,CCOC(=O)N1CCC(=C2c3ccc(Cl)cc3CCc3cccnc32)CC1 [LORATADINE],320 min
2,CC(C)(C)c1ccc(C(O)CCCN2CCC(C(O)(c3ccccc3)c3ccccc3)CC2)cc1 (centres undefined) [TERFENADINE],133 min

# Test system: Rattus norvegicus
# Assay: Tested at 30 (mg/kg) dose for percent inhibition required to inhibit mortality in sensitized animals by histamine
# Assay type: functional
# Conditions: not given
row,SMILES,Inhibition
1,[O-][n+]1cccc(CN2CCC(=C3c4ccc(Cl)cc4CCc4cccnc43)CC2)c1,56%

# Test system: Rattus norvegicus
# Assay: Intravenous dose required to reduce the lowering of the arterial blood pressure caused by PAF
# Assay type: functional
# Conditions: Rattus norvegicus, Arterial blood, iv; read-out: ID50 (the source's name)
row,SMILES,ED50
1,CSc1ncccc1C(=O)N1CCC(=C2c3ccc(Cl)cc3CCc3cccnc32)CC1,> 5 mg/kg
2,[O-][n+]1cccc(CN2CCC(=C3c4ccc(Cl)cc4CCc4cccnc43)CC2)c1,> 5 mg/kg
3,COC(=O)c1ccncc1C(=O)N1CCC(=C2c3ccc(Cl)cc3CCc3cccnc32)CC1,> 5 mg/kg
4,Cc1cncc(C(=O)N2CCC(=C3c4ccc(Cl)cc4CCc4cccnc43)CC2)c1,> 5 mg/kg
5,O=C(c1cncc(Br)c1)N1CCC(=C2c3ccc(Cl)cc3CCc3cccnc32)CC1,> 5 mg/kg

# Test system: Mus musculus
# Assay: Antiallergic activity was evaluated using active anaphylactic test after po administration in mice
# Assay type: functional
# Conditions: read-out: ID50 (the source's name)
row,SMILES,ED50
1,CCOC(=O)N1CCC(=C2c3ccc(Cl)cc3CCc3cccnc32)CC1 [LORATADINE],19 mg/kg
2,Clc1ccc2c(c1)CCc1cccnc1C2=C1CCN(Cc2cccnc2)CC1,6.7 mg/kg
3,Cc1ccc(CN2CCC(=C3c4ccc(Cl)cc4CCc4cccnc43)CC2)cn1.Cl,12 mg/kg
4,Clc1ccc2c(c1)CCc1cccnc1C2=C1CCN(Cc2ccncc2)CC1,6.1 mg/kg
5,O=C(c1cc[n+]([O-])cc1)N1CCC(=C2c3ccc(Cl)cc3CCc3cccnc32)CC1,12 mg/kg
6,Clc1ccc2c(c1)CCc1cccnc1C2=C1CCN(Cc2cncc(Br)c2)CC1,17 mg/kg
7,O=C(c1cccnc1Cl)N1CCC(=C2c3ccc(Cl)cc3CCc3cccnc32)CC1,> 30 mg/kg
8,Clc1ccc2c(c1)CCc1cccnc1C2=C1CCN(Cc2cccnc2Cl)CC1,4.5 mg/kg
9,COC(=O)c1ccncc1C(=O)N1CCC(=C2c3ccc(Cl)cc3CCc3cccnc32)CC1,11 mg/kg
10,Cc1cncc(C(=O)N2CCC(=C3c4ccc(Cl)cc4CCc4cccnc43)CC2)c1,12 mg/kg
11,O=C(c1cncc(Br)c1)N1CCC(=C2c3ccc(Cl)cc3CCc3cccnc32)CC1,> 30 mg/kg

# Reference: ChEMBL document CHEMBL1127436, “[(3-Pyridylalkyl)piperidylidene]benzocycloheptapyridine derivatives as dual antagonists of PAF and histamine” (J Med Chem, 1994)
